Measurements taken from patent US8785457B2 (Cellzome Limited, priority 2009, dated 2014).
Where two headings read alike, the source gives them in different places.

Molecular target: T1, PI3K delta (PI3 Kd) (Homo sapiens, UniProt O00329)
T1 construct: endogenous in cells; host or cells: Jurkat, clone E6-1 (ATCC TIB-152) cell lysate
Assay: kinobeads assay, PI3K delta
Assay type: binding
Method in brief: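 Competitive binding in Jurkat cell lysate (5 mg/ml total protein): test compounds at various concentrations competed with beads bearing immobilized phenylmorpholin-chromen ligand. Bead-bound kinases were eluted and quantified by antibody dot blot with infrared detection; IC50 values came from dose-response curves.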

[1] = kinobeads assay, Table 4, read-out: Inhibition values (IC50) PI3Kd
[2] = kinobeads assay, Table 6, read-out: Inhibition values (IC50) PI3Kd
[3] = Further Kinobeads Data, read-out: PI3Kd

T1 sequence (O00329 whole entry): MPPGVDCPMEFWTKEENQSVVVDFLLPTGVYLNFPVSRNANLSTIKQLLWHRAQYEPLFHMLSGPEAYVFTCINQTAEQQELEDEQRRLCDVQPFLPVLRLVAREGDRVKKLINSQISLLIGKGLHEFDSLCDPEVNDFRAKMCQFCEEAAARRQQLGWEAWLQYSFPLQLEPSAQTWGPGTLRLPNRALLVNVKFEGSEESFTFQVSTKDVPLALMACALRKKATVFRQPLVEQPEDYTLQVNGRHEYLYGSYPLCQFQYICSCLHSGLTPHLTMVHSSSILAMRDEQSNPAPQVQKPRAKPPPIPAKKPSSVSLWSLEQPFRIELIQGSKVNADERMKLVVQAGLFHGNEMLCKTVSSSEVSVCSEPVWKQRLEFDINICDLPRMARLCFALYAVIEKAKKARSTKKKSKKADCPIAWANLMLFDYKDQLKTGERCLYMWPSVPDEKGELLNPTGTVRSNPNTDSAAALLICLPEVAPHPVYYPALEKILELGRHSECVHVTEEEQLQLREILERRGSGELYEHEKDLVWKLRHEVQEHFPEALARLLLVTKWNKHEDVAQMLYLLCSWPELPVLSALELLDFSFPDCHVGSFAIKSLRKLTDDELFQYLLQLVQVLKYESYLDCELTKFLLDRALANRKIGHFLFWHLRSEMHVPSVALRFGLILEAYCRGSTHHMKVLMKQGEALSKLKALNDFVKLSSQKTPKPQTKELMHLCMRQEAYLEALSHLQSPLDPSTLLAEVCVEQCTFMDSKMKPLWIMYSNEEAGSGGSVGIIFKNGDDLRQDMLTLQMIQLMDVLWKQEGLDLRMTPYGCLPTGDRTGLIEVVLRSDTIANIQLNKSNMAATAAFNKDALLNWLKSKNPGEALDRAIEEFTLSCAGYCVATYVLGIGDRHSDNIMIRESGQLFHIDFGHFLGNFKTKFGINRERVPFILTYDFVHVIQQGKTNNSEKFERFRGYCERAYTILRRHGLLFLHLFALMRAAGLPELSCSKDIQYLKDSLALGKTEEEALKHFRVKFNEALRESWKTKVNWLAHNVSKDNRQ
T1 sequence (P27986 whole entry partner): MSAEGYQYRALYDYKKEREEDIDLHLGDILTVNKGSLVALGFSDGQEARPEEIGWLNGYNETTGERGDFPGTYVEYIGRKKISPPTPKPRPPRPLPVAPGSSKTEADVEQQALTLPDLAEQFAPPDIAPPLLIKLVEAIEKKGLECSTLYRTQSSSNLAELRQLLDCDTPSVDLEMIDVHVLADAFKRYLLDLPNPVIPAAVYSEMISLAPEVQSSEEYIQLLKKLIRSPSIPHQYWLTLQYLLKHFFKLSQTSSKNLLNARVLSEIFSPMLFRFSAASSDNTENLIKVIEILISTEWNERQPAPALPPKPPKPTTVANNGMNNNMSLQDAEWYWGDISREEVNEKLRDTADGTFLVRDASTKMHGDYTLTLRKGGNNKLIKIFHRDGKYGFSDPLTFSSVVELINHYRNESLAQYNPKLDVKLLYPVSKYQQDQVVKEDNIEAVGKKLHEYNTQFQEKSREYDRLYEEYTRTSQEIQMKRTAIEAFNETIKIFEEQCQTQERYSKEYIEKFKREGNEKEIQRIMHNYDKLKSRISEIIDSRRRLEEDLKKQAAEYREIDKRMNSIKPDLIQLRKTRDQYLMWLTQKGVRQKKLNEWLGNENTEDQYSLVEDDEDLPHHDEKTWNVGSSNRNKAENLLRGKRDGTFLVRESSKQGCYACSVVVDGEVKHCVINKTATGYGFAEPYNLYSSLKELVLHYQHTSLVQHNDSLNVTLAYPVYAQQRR

| IC50 [1] [µM] | IC50 [2] [µM] | IC50 [3] [µM] | Structure (SMILES) |
| --- | --- | --- | --- |
| > 10 | > 10 |  | C[C@H]1COCCN1c1nc(-c2ccc(NC(=O)NC3CC3)cc2)nc2c1CN(C(=O)C(C)(C)C)C2 [Example 45, (S)-1-cyclopropyl-3-(4-(4-(3-methylmorpholino)-6-pivaloyl-6,7-dihydro-5H-pyrrolo[3,4-d]pyrimidin-2-yl)phenyl)urea] |
|  |  | 1 to 10 | CCOC(=O)N1Cc2nc(-c3ccc(NC(=O)NCCF)cc3F)nc(N3CCOC[C@@H]3C)c2C1 [Example 168, (S)-ethyl 2-(2-fluoro-4-(3-(2-fluoroethyl)ureido)phenyl)-4-(3-methylmorpholino)-5H-pyrrolo[3,4-d]pyrimidine-6(7H)-carboxylate] |
|  |  | 1 to 10 | CC(C)N1Cc2nc(-c3ccc(NC(=O)NCCF)cc3F)nc(N3CCOCC3)c2C1 [Example 185, 1-(3-fluoro-4-(6-isopropyl-4-morpholino-6,7-dihyro-5H-pyrrolo[3,4-d]pyrimidin-2-yl)phenyl)-3-(2-fluoroethyl)urea] |
| > 10 | > 10 |  | C[C@H]1COCCN1c1nc(-c2ccc(NC(=O)NC3CC3)cc2)nc2c1CCN(CC(C)(C)C)C2 [Example 41, (S)-1-cyclopropyl-3-(4-(4-(3-methylmorpholino)-7-neopentyl-5,6,7,8-tetrahydropyrido[3,4-d]pyrimidin-2-yl)phenyl)urea] |
| 1 to 10 | 1 to 10 |  | CCNC(=O)Nc1ccc(-c2nc3c(c(N4CCOC[C@@H]4C)n2)CN(C(=O)C2CC2)C3)cc1 [Example 23, (S)-1-(4-(6-(cyclopropanecarbonyl)-4-(3-methylmorpholino)-6,7-dihydro-5H-pyrrolo[3,4-d]pyrimidin-2-yl)phenyl)-3-ethylurea] |
| > 10 | > 10 |  | CC(C)NC(=O)Nc1ccc(-c2nc3c(c(N4CCOC[C@@H]4C)n2)CN(CC2CC2)C3)cc1 [Example 50, (S)-1-(4-(6-(cyclopropylmethyl)-4-(3-methylmorpholino)-6,7-dihydro-5H-pyrrolo[3,4-d]pyrimidin-2-yl)phenyl)-3-isopropylurea] |
|  |  | > 10 | C[C@@H]1COCCN1c1nc(-c2ccc(NC(=O)NC3CC3)cc2F)nc2c1CN(S(C)(=O)=O)C2 [Example 191, (R)-1-cyclopropyl-3-(3-fluoro-4-(4-(3-methylmorpholino)-6-(methylsulfonyl)-6,7-dihydro-5H-pyrrolo[3,4-d]pyrimidin-2-yl)phenyl)urea] |
|  |  | > 10 | COC(=O)N1Cc2nc(-c3ccc(NC(=O)NCCO)cc3F)nc(N3CCOC[C@@H]3C)c2C1 [Example 181, (S)-methyl 2-(2-fluoro-4-(3-(2-hydroxyethyl)ureido)phenyl)-4-(3-methylmorpholino)-5H-pyrrolo[3,4-d]pyrimidine-6(7H)-carboxylate] |
|  |  | > 10 | CCNC(=O)Nc1ccc(-c2nc3c(c(N4CCOC[C@@H]4C)n2)CN(C(=O)OC(C)(C)C)C3)c(F)c1 [Example 153, (S)-tert-butyl 2-(4-(3-ethylureido)-2-fluorophenyl)-4-(3-methylmorpholino)-5H-pyrrolo[3,4-d]pyrimidine-6-(7H)-carboxylate] |
| > 10 | > 10 |  | CCNC(=O)Nc1ccc(-c2nc3c(c(N4CCOC[C@@H]4C)n2)CN(S(C)(=O)=O)C3)cc1 [Example 32, (S)-1-ethyl-3-(4-(4-(3-methylmorpholino)-6-(methylsulfonyl)-6,7-dihydro-5H-pyrrolo[3,4-d]pyrimidin-2-yl)phenyl)urea] |
| 1 to 10 | 1 to 10 |  | CNC(=O)Nc1ccc(-c2nc3c(c(N4CCOC[C@@H]4C)n2)CN(CC2CC2)C3)cc1 [Example 47, (S)-1-(4-(6-(cyclopropylmethyl)-4-(3-methylmorpholino)-6,7-dihydro-5H-pyrrolo[3,4-d]pyrimidin-2-yl)phenyl)-3-methylurea] |
| > 10 | > 10 |  | CCNC(=O)Nc1ccc(-c2nc3c(c(N4CCOC[C@@H]4C)n2)CN(CC2CC2)C3)cc1 [Example 28, (S)-1-(4-(6-(cyclopropylmethyl)-4-(3-methylmorpholino)-6,7-dihydro-5H-pyrrolo[3,4-d]pyrimidin-2-yl)phenyl)-3-ethylurea] |
|  |  | > 10 | CCOC(=O)N1Cc2nc(-c3ccc(NC(=O)NCCO)cc3F)nc(N3CCOCC3)c2C1 [Example 171, ethyl 2-(2-fluoro-4-(3-(2-hydroxyethyl)ureido)phenyl)-4-morpholino-5H-pyrrolo[3,4-d]pyrimidine-6(7H)-carboxylate] |
|  |  | 1 to 10 | CCOC(=O)N1Cc2nc(-c3ccc(NC(=O)NCCO)cc3F)nc(N3CCOC[C@@H]3C)c2C1 [Example 167, (S)-Ethyl 2-(2-fluoro-4-(3-(2-hydroxyethyl)ureido)phenyl)-4-(3-methylmorpholino)-5H-pyrrolo[3,4-d]pyrimidine-6(7H)-carboxylate] |
| > 10 | > 10 |  | CC(C)CN1CCc2c(nc(-c3ccc(NC(=O)NC4CC4)cc3)nc2N2CCOC[C@@H]2C)C1 [Example 42, (S)-1-cyclopropyl-3-(4-(7-isobutyl-4-(3-methylmorpholino)-5,6,7,8-tetrahydropyrido[3,4-d]pyrimidin-2-yl)phenyl)urea] |
| > 10 | > 10 |  | CC(C)N1Cc2nc(-c3ccc(NC(=O)NC4CC4)cc3)nc(N3CCOC[C@@H]3C)c2C1 [Example 46, (S)-1-cyclopropyl-3-(4-(6-isopropyl-4-(3-methylmorpholino)-6,7-dihydro-5H-pyrrolo[3,4-d]pyrimidin-2-yl)phenyl)urea] |
|  |  | > 10 | C[C@H]1COCCN1c1nc(-c2ccc(NC(=O)NC3CC3)cc2F)nc2c1CN(C)C2 [Example 147, (S)-1-cyclopropyl-3-(3-fluoro-4-(6-methyl-4-(3-methylmorpholino)-6,7-dihydro-5H-pyrrolo[3,4-d]pyrimidin-2-yl)phenyl)urea] |
| > 10 | > 10 |  | CC(C)C(=O)N1Cc2nc(-c3ccc(NC(=O)NC4CC4)cc3)nc(N3CCOC[C@@H]3C)c2C1 [Example 44, (S)-1-cyclopropyl-3-(4-(6-isobutyryl-4-(3-methylmorpholino)-6,7-dihydro-5H-pyrrolo[3,4-d]pyrimidin-2-yl)phenyl)urea] |
|  |  | > 10 | C[C@H]1COCCN1c1nc(-c2ccc(NC(=O)NC3CC3)cc2F)nc2c1CCNC2 [Example 163, (S)-1-cyclopropyl-3-(3-fluoro-4-(4-(3-methylmorpholino)-5,6,7,8-tetrahydropyrido[3,4-d]pyrimidin-2-yl)phenyl)urea] |
|  |  | > 10 | CCNC(=O)Nc1ccc(-c2nc3c(c(N4CCOCC4)n2)CN(C)C3)c(F)c1 [Example 154, 1-ethyl-3-(3-fluoro-4-(6-methyl-4-morpholino-6,7-dihydro-5H-pyrrolo[3,4-d]pyrimidin-2-yl)phenyl)urea] |
|  |  | > 10 | CC(C)N1Cc2nc(-c3ccc(NC(=O)NCCO)cc3F)nc(N3CCOC[C@@H]3C)c2C1 [Example 187, (S)-1-(3-fluoro-4-(6-isopropyl-4-(3-methylmorpholino)-6,7-dihydro-5H-pyrrolo[3,4-d]pyrimidin-2-yl)phenyl)-3-(2-hydroxyethyl)urea] |
| > 10 | > 10 |  | CCNC(=O)Nc1ccc(-c2nc3c(c(N4CCOC[C@@H]4C)n2)CNCC3)cc1 [Example 12, (S)-1-ethyl-3-(4-(4-(3-methylmorpholino)-5,6,7,8-tetrahydropyrido[4,3-d]pyrimidin-2-yl)phenyl)urea] |
|  |  | > 10 | COC(=O)N1Cc2nc(-c3ccc(NC(=O)NC4CC4)cc3F)nc(N3CCOC[C@H]3C)c2C1 [Example 180, (R)-methyl 2-(4-(3-cyclopropylureido)-2-fluorophenyl)-4-(3-methylmorpholino)-5H-pyrrolo[3,4-d]pyrimidine-6(7H)-carboxylate] |
|  |  | > 10 | C[C@H]1COCCN1c1nc(-c2ccc(NC(=O)NC3CC3)cc2F)nc2c1CN(S(C)(=O)=O)C2 [Example 177, (S)-1-cyclopropyl-3-(3-fluoro-4-(4-(3-methylmorpholino)-6-(methylsulfonyl)-6,7-dihydro-5H-pyrrolo[3,4-d]pyrimidin-2-yl)phenyl)urea] |
